Reference: US12139471B2, “NLRP3 inflammasome inhibitors” (Novartis AG, priority 2019, dated 2024)
Where a name gives a salt, the structure may show the parent alone.

Each compound was assayed against T1, NLRP3 inflammasome (Homo sapiens, UniProt Q96P20) (assay: IL-1β secretion assay (nigericin-activated, PMA-differentiated THP-1 cells, HTRF)). Details: IL-1β IC50, PMA-differentiated THP-1 cells; compound 1 hour, then 15 μM nigericin, 3 hours; IL-1β by HTRF.
T1 construct: host or cells: THP-1 cells, PMA-differentiated
Type: cell-based
Description: 10 μL supernatant was removed, and IL-1β levels were monitored using an HTRF assay (CisBio, #62IL1PEC) according to manufacturers' instructions. Viability and pyroptosis was monitored with the addition of PrestoBlue cell viability reagent (Life Technologies, #A13261) directly to the cell culture plate.
IC50 values were calculated from the plot of percentage of inhibition versus the inhibitor concentration by a logistics fit according to: y=A2+(A1−A2)/(1+(x/IC50)^p) where y is the %-inhibition at the inhibitor concentration, x. A1 is the lowest inhibition value, i.e. 0%, and A2 the maximum inhibition value, i.e. 100%. The exponent, p, is the Hill coefficient. The curve fitting was conducted with an internally developed software suite.
NLRP3-dependent IL-1β secretion was stimulated in PMA-differentiated THP-1 cells by the addition of nigericin, and cytokines were measured in the […] after 3 hours. As discussed above, activation of the NLRP3 inflammasome requires both an NF-kB-dependent priming step and the addition of a NLRP3 activator.

T1 sequence (Q96P20 whole entry): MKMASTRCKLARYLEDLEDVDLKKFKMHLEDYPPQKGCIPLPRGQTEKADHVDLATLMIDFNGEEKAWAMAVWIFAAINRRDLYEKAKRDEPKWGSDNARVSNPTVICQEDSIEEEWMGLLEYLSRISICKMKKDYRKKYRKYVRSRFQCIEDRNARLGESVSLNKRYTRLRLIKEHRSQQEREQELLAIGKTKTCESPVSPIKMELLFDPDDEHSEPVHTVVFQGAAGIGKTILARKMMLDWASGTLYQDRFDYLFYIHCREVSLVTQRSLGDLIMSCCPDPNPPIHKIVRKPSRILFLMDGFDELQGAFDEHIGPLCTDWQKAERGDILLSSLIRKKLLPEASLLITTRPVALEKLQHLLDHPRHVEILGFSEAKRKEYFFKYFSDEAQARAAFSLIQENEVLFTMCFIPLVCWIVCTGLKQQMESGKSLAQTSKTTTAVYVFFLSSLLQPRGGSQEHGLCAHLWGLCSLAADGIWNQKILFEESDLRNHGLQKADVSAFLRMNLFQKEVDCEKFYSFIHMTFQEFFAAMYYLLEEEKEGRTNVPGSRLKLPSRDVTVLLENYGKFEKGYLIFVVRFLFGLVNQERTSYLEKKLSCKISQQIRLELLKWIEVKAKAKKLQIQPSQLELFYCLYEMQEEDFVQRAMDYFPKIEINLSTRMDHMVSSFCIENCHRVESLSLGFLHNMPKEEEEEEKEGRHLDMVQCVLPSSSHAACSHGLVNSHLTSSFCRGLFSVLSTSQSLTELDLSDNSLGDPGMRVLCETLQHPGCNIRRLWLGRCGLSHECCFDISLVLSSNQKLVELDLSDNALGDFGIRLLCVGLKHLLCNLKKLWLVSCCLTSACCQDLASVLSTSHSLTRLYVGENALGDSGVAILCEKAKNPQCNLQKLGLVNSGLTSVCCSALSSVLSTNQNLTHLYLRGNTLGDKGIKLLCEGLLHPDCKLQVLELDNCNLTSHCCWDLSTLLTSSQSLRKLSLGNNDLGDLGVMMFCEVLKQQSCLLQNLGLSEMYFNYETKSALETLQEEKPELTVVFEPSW

| SMILES | IC50 [µM] |
| --- | --- |
| Cc1cc(C(F)(F)F)cc(O)c1-c1ccc(NC2CCC3CCC2N3C)nn1 (single isomer, unassigned) [Ex 85b] | 0.0013 |
| Cc1cc(C(F)(F)F)cc(O)c1-c1ccc(NC2CCC3CCC2N3CCO)nn1 (single isomer, unassigned) [Ex 86b] | 0.0018 |

Same assay, conditions: PMA-differentiated THP-1 cells; compound 1 hour, then 15 μM nigericin, 3 hours; IL-1β by HTRF; read-out: IL-1β IC50

| SMILES | IC50 [µM] |
| --- | --- |
| Cc1cc(C(F)(F)F)cc(O)c1-c1ccc(NCC2COCCN2C)nn1 (racemic) [Ex 77, (rac)-3-Methyl-2-(6-(((4-methylmorpholin-3-yl)methyl)amino)pyridazin-3-yl)-5-(trifluoromethyl)phenol] | 0.0619 |
| Cc1cc(C(F)(F)F)cc(O)c1-c1ccc(N[C@@H]2CCC[C@H]2O)nn1 (relative stereo) [Ex 24, (trans)-2-(6-((2-Hydroxycyclopentyl)amino)pyridazin-3-yl)-3-methyl-5-(trifluoromethyl)phenol] | 0.12 |
| Cc1cc(C(F)(F)F)cc(O)c1-c1ccc(N[C@@H]2CCCN3CCC[C@H]23)nn1 (single isomer, unassigned) [Ex 83a] | 0.0008 |
| Cc1cc(C(F)(F)F)cc(O)c1-c1ccc(N[C@H]2CCCN3CCC[C@@H]23)nn1 (single isomer, unassigned) [Ex 83b] | 0.0694 |
| Cc1cc(C(F)(F)F)cc(O)c1-c1ccc(NC[C@H]2CCCCN2CCO)nn1 (single isomer, unassigned) [Ex 84a] | 0.0425 |
| Cc1cc(C(F)(F)F)cc(O)c1-c1ccc(NC[C@@H]2CCCCN2CCO)nn1 (single isomer, unassigned) [Ex 84b] | 0.0533 |
| Cc1cc(C(F)(F)F)cc(O)c1-c1ccc(NC2CCC3CCC2N3C)nn1 (single isomer, unassigned) [Ex 85a] | 0.148 |
| Cc1cc(C(F)(F)F)cc(O)c1-c1ccc(NC2CCC3CCC2N3CCO)nn1 (single isomer, unassigned) [Ex 86a] | 0.175 |
| Cc1cc(C(F)(F)F)cc(O)c1-c1ccc(NC[C@](C)(O)CO)nn1 (single isomer, unassigned) [Ex 88a] | 0.0623 |
| Cc1cc(C(F)(F)F)cc(O)c1-c1ccc(NC[C@@](C)(O)CO)nn1 (single isomer, unassigned) [Ex 88b] | 0.0605 |
| Cc1cc(C(F)(F)F)cc(O)c1-c1ccc(N[C@H]2CC[C@H](O)[C@@H]2O)nn1 (single isomer, unassigned) [Ex 89a] | 0.0597 |
| Cc1cc(C(F)(F)F)cc(O)c1-c1ccc(N[C@@H]2CC[C@@H](O)[C@H]2O)nn1 (single isomer, unassigned) [Ex 89b] | 0.182 |
| Cc1cc(C(F)(F)F)cc(O)c1-c1ccc(NC[C@@H](O)C(C)C)nn1 (single isomer, unassigned) [Ex 90a] | 0.0642 |
| Cc1cc(C(F)(F)F)cc(O)c1-c1ccc(NC[C@H](O)C(C)C)nn1 (single isomer, unassigned) [Ex 90b] | 0.115 |
| Cc1cc(C(F)(F)F)cc(O)c1-c1ccc(N[C@H]2C[C@@](C)(O)C2)nn1 [Ex 2, 2-(6-(((cis)-3-Hydroxy-3-methylcyclobutyl)amino)pyridazin-3-yl)-3-methyl-5-(trifluoromethyl)phenol] | 0.0102 |
| Cc1cc(C(F)(F)F)cc(O)c1-c1ccc(N[C@@H]2CCC[C@H](O)C2)nn1 [Ex 3, 2-(6-(((1R,3S)-3-Hydroxycyclohexyl)amino)pyridazin-3-yl)-3-methyl-5-(trifluoromethyl)phenol] | 0.0255 |
| CCN1CCC[C@H]1CNc1ccc(-c2c(C)cc(C(F)(F)F)cc2O)nn1 [Ex 8, (S)-2-(6-(((1-Ethylpyrrolidin-2-yl)methyl)amino)pyridazin-3-yl)-3-methyl-5-(trifluoromethyl)phenol] | 0.0241 |
| Cc1cc(C(F)(F)F)cc(O)c1-c1ccc(NCC(O)(C(F)(F)F)C(F)(F)F)nn1 [Ex 10, 3-Methyl-2-(6((3,3,3-trifluoro-2-hydroxy-2-(trifluoromethyl)propyl)amino)pyridazin-3-yl)-5-(trifluoromethyl)phenol] | 0.349 |
| Cc1cc(C(F)(F)F)cc(O)c1-c1ccc(NC[C@H]2CCCN2)nn1 [Ex 14, (R)-3-Methyl-2-(6-((pyrrolidin-2-ylmethyl)amino)pyridazin-3-yl)-5-(trifluoromethyl)phenol] | 0.0857 |
| Cc1cc(C(F)(F)F)cc(O)c1-c1ccc(NCC(C)(C)O)nn1 [Ex 15, 2-(6-((2-Hydroxy-2-methylpropyl)amino)pyridazin-3-yl)-3-methyl-5-(trifluoromethyl)phenol] | 0.0859 |

| SMILES | IC50 [µM] |
| --- | --- |
| Cc1cc(C(F)(F)F)cc(O)c1-c1ccc(NCC(C)(C)N(C)C)nn1 [Ex 16, 2-(6-((2-(Dimethylamino)-2-methylpropyl)amino)pyridazin-3-yl)-3-methyl-5-(trifluoromethyl)phenol] | 0.0363 |
| Cc1cc(C(F)(F)F)cc(O)c1-c1ccc(OCC(C)(C)O)nn1 [Ex 19, 2-(6-(2-Hydroxy-2-methylpropoxy)pyridazin-3-yl)-3-methyl-5-(trifluoromethyl)phenol] | 0.0936 |
| Cc1cc(C(F)(F)F)cc(O)c1-c1ccc(NC[C@H]2CCCCN2)nn1 [Ex 20, (R)-3-Methyl-2-(6-((piperidin-2-ylmethyl)amino)pyridazin-3-yl)-5-(trifluoromethyl)phenol] | 0.0823 |
| Cc1cc(C(F)(F)F)cc(O)c1-c1ccc(NC[C@@H]2CCCCN2)nn1 [Ex 21, (S)-3-Methyl-2-(6-((piperidin-2-ylmethyl)amino)pyridazin-3-yl)-5-(trifluoromethyl)phenol] | 0.0484 |
| Cc1cc(C(F)(F)F)cc(O)c1-c1ccc(NC[C@@H]2CC(F)(F)CN2)nn1 [Ex 22, (S)-2-(6-(((4,4-Difluoropyrrolidin-2-yl)methyl)amino)pyridazin-3-yl)-3-methyl-5-(trifluoromethyl)phenol] | 0.0807 |
| Cc1cc(C(F)(F)F)cc(O)c1-c1ccc(NC[C@H]2CC(F)(F)CN2)nn1 [Ex 23, (R)-2-(6-(((4,4-Difluoropyrrolidin-2-yl)methyl)amino)pyridazin-3-yl)-3-methyl-5-(trifluoromethyl)phenol] | 0.0934 |
| Cc1cc(C(F)(F)F)cc(O)c1-c1cc(C(F)(F)F)c(NCCO)nn1 [Ex 26, 2-(6-((2-Hydroxyethyl)amino)-5-(trifluoromethyl)pyridazin-3-yl)-3-methyl-5-(trifluoromethyl)phenol] | 0.165 |
| Cc1cc(C(F)(F)F)cc(O)c1-c1ccc(NCc2ccccn2)nn1 [Ex 28, 3-Methyl-2-(6-((pyridin-2-ylmethyl)amino)pyridazin-3-yl)-5-(trifluoromethyl)phenol] | 0.288 |
| Cc1cc(C(F)(F)F)cc(O)c1-c1ccc(NCC(C)(C)N)nn1 [Ex 29, 2-(6-((2-Amino-2-methylpropyl)amino)pyridazin-3-yl)-3-methyl-5-(trifluoromethyl)phenol] | 0.169 |
| CC(C)(O)CNc1ccc(-c2c(O)cc(C(F)(F)F)cc2Cl)nn1 [Ex 30, 3-Chloro-2-(6-((2-hydroxy-2-methylpropyl)amino)pyridazin-3-yl)-5-(trifluoromethyl)phenol] | 0.214 |
| Oc1cc(C(F)(F)F)cc(Cl)c1-c1ccc(N[C@H]2C[C@@H](O)C2)nn1 [Ex 31, 3-Chloro-2-(6-((cis-3-hydroxycyclobutyl)amino)pyridazin-3-yl)-5-(trifluoromethyl)phenol] | 0.167 |
| Oc1cc(C(F)(F)F)cc(Cl)c1-c1ccc(N[C@H]2C[C@H](O)C2)nn1 [Ex 32, 3-Chloro-2-(6-((trans-3-hydroxycyclobutyl)amino)pyridazin-3-yl)-5-(trifluoromethyl)phenol] | 0.218 |
| Cc1ncccc1CNc1ccc(-c2c(O)cc(C(F)(F)F)cc2Cl)nn1 [Ex 34, 3-Chloro-2-(6-(((2-methylpyridin-3-yl)methyl)amino)pyridazin-3-yl)-5-(trifluoromethyl)phenol] | 0.496 |
| Cc1ncccc1CNc1ccc(-c2c(O)cc(Cl)cc2C(F)(F)F)nn1 [Ex 35, 5-Chloro-2-(6-(((2-methylpyridin-3-yl)methyl)amino)pyridazin-3-yl)-3-(trifluoromethyl)phenol] | 0.243 |
| OCCNc1ccc(-c2c(O)cc(C(F)(F)F)cc2Cl)nn1 [Ex 37, 3-Chloro-2-(6-((2-hydroxyethyl)amino)pyridazin-3-yl)-5-(trifluoromethyl)phenol] | 0.381 |
| Cc1cc(C(F)(F)F)cc(O)c1-c1ccc(Nc2cncnc2)nn1 [Ex 43, 3-Methyl-2-(6-(pyrimidin-5-ylamino)pyridazin-3-yl)-5-(trifluoromethyl)phenol] | 0.281 |
| Cc1cc(C(F)(F)F)cc(O)c1-c1ccc(NC2(C)CCCN(C)C2)nn1 (stereo not drawn) [Ex 52, 2-(6-((1,3-Dimethylpiperidin-3-yl)amino)pyridazin-3-yl)-3-methyl-5-(trifluoromethyl)phenol TFA-salt] | 0.186 |
| Cc1cc(-c2c(C)cc(C(F)(F)F)cc2O)nnc1N[C@H]1C[C@@](C)(O)C1 [Ex 54, 2-(6-(((cis)-3-Hydroxy-3-methylcyclobutyl)amino)-5-methylpyridazin-3-yl)-3-methyl-5-(trifluoromethyl)phenol] | 0.0118 |
| Cc1cc(N[C@H]2C[C@@](C)(O)C2)nnc1-c1ccc(C(F)(F)F)cc1O [Ex 55, 2-(6-(((cis)-3-Hydroxy-3-methylcyclobutyl)amino)-4-methylpyridazin-3-yl)-5-(trifluoromethyl)phenol] | 0.0458 |
| Cc1cc(C(F)(F)F)cc(O)c1-c1cc(C(F)(F)F)c(N[C@H]2C[C@@](C)(O)C2)nn1 [Ex 56, 2-(6-(((cis)-3-Hydroxy-3-methylcyclobutyl)amino)-5-(trifluoromethyl)pyridazin-3-yl)-3-methyl-5-(trifluoromethyl)phenol] | 0.0083 |
